Test results as given in patent US9669038B1, “Heterocyclic compounds and uses thereof” (Globavir BioSciences, Inc., priority 2012, dated 2017).

Experiments:
[1] = system: HIF1α-inducible promoter activity; experiment: luciferase-based hypoxia-inducible promoter activity assay, MDA-MB-231-HRE-Luc cell line; conditions: MDA-MB-231-HRE-Luc cells, various concentrations
Experimental: Results from the luciferase-based promoter activity assay with MDA-MB-231-HRE-Luc cell line treated with OOP 1 at various concentration. Hypoxia was mimicked by O2 deprivation in a GasPak™ EZ Anaerobe Pouch System (BD). Error bars represent ±s.e.m. of experiments performed in triplicates. * P<0.05, ** P<0.01, t-test, relative to sample Vehicle Hypoxia.
An analysis of hypoxia-inducible promoter activity was performed using luciferase assays in a MDA-MB-231 cell line stably transfected with hRE-hCMV-Luc plasmid. Cell lines were treated with OOP compounds at various concentrations. Hypoxia was mimicked by O2 deprivation in a GasPak™ EZ Anaerobe Pouch System (BD). Error bars represent ±s.e.m. of experiments performed in triplicates.

[2] = MTT cytotoxicity assay in MCF7 cells; type: cell-based; conditions: human, MCF7 breast cancer cells, 1 μM to 60 μM
Experimental: One potential issue that arises with the use of transcriptional inhibitors is their cytotoxicity. Therefore, careful assessment of the cytotoxicity is important to evaluate nonspecific, global effects on transcriptional machinery. Cytotoxicity experiments were performed in order to obtain the EC50 values of OOPS in an MCF7 breast cancer cell line.
The cells were treated with different concentrations of compound for 48 hours in serum free F-12K medium. The cells are plated into 96-well dishes (Greiner) at a density of 5,000-10,000 cells/well in 200 μl of the cell culture media prepared as recommended by the vendor (ATCC). The plates are then placed into the incubator (37° C., 5% CO2) until the desired confluence is reached (in ca. 24-72 hours). Next, the media in all wells is replaced with the solution of the OOPS compound (150 μl for 48 hour study, 200 μl for 72 hour study) in the appropriate cell culture medium. The plates are then incubated for 48 hours (37° C., 5% CO2). […] The resulting purple precipitate is then dissolved in DMSO (200 μl/well) and the absorption of the metabolite product (purple formazan) in each well is measured at 562 nm using microplate reader (BioTek Synergy II). The absorption values are plotted against the concentration of the compound and GI50 is determined.

MCF7 cells = experiment: gene expression profiling with Affymetrix Human Gene ST 1.0 Arrays; type: cell-based; conditions: 10 μM, hypoxia (GasPak EZ pouch), |fold-change|>2.0, P<0.005, set of 3328 transcripts
Experimental: (A) Agglomerative hierarchical clustering of expression changes of the 3328 transcripts induced or repressed 2-fold or more (one-way ANOVA, P<0.005) under hypoxia mimicked with GasPak EZ pouch and the four specified conditions: -, no treatment; 1, OOP 1 (10 iuM); 2, OOP 2 (10 μM), 4, OOP 4 (10 μM). Clustering was based on a Pearson centered correlation of intensity ratios for each treatment compared to hypoxic cells (controls) using average-linkage as a distance. Of this hypoxia-induced set, 148 were induced and 449 were inhibited by OOP 1, whereas 217 were induced and 371 inhibited by OOP 2 (|fold-change|>2.0, P<0.005). Treatment with control OOP 4 induced 91 and inhibited 82 transcripts (|fold-change|>2.0, P<0.005). (B) Clustering of expression changes of the 571 transcripts induced or repressed 4-fold or more (P<0.005) by hypoxia mimicked with GasPak EZ pouch under the designated treatment conditions. Clustering parameters were the same as in (A). All reported treatments are error-weighted averages from three experiments. […] Numbers inside the intersections represent hypoxia-induced transcripts affected by the treatments.
Target proteins p300 and CBP are pleiotropic multidomain coactivators, and their CH1 regions contain binding sites for multiple transcription factors. To determine nonspecific genome-wide effects of OOPS, in vitro gene expression profiling experiments were conducted with OOPS using Affymetrix Human Gene ST 1.0 Arrays containing oligonucleotide sequences representing 28,869 transcripts. In order to interrogate cellular genome for global effects, MCF7 cells were treated with OOPS.

c-Met = experiment: Western blot of intracellular c-Met levels in A549 cells; type: cell-based; conditions: A549 whole cell extract, 24 h incubation, hypoxia for last 18 h
Experimental: Western blot analysis of c-Met levels (A) with β-actin used as a control (B) in the whole cell extract of A549 cells. Cells were incubated for a total of 24 hours with OOP 2. After 6 h, hypoxia was mimicked by O2 deprivation in a GasPak™ EZ Anaerobe Pouch System (BD) for an additional 18 h.
(§1) The effect of OOPS on HIF-1α and c-met protein levels was studied. A549 cells were treated with OOPS. Cells were incubated for a total of 24 hours with OOP 2. After 6 h, hypoxia was mimicked by O2 deprivation in a GasPak™ EZ Anaerobe Pouch System (BD) for an additional 18 hours.

LOX gene = experiment: qRT-PCR of hypoxia-induced LOX transcription in A549 cells; type: cell-based; conditions: hypoxia (GasPak EZ Anaerobe Pouch), real-time qRT-PCR
Experimental: (§2) Hypoxia was mimicked by O2 deprivation in a GasPak™ EZ Anaerobe Pouch System (BD). […] Error bars are ±s.e.m. of four independent experiments. *** P<0.001, t-test.
(§3) A549 cells, a non-small cell lung adenocarcinoma cell line, were used. It has been reported that A549 cell line produces robust upregulation of key HIF-inducible genes under hypoxia conditions. […] A549 cells were maintained in 2% serum followed by treating cells with compound or control in the media with 0.2% serum for 48 h.
(§4) mRNA levels of three HIF-1α inducible genes: VEGF, c-Met and […] in A549 cells after treatment with OOPS were measured. Data from qRT-PCR experiments showing mRNA levels of three HIF-1α inducible genes, VEGF, c-Met and LOX in A549 after treatment of the cells in a medium with OOPS is described in FIGS. 1-3. Hypoxia was mimicked by O2 deprivation in a GasPak™ EZ Anaerobe Pouch System (BD). Error bars are ±s.e.m for the experiments performed in quadruplicate. Error bars are ±s.e.m. of experiments performed in triplicate. *** P<0.001, ** P<0.01, t test.

HIF-1α = experiment: Western blot of intracellular HIF-1α levels in A549 cells; type: cell-based; conditions: A549 whole cell extract, 24 h incubation, hypoxia for last 18 h
Experimental: Western blot analysis of HIF-1α levels (A) with β-actin used as a control (B) in the whole cell extract of A549 cells. Cells were incubated for a total of 24 hours with OOP 2. After 6 h, hypoxia was mimicked by O2 deprivation in a GasPak™ EZ Anaerobe Pouch System (BD) for an additional 18 h.
as §1

VEGFA gene = experiment: qRT-PCR of hypoxia-induced VEGFA transcription in A549 cells; type: cell-based; conditions: hypoxia (GasPak EZ Anaerobe Pouch), real-time qRT-PCR
Experimental: as §2, §3, §4

c-Met gene = experiment: qRT-PCR of hypoxia-induced c-Met transcription in A549 cells; type: cell-based; conditions: hypoxia (GasPak EZ Anaerobe Pouch), real-time qRT-PCR
Experimental: as §2, §3, §4

[3] = maximum tolerated dose (MTD) study; type: in vivo; conditions: Balb/C mice, intraperitoneal injection every 48 hours, up to 100 mg/kg
Experimental: Balb/C mice were used in an MTD experiment. 1 mouse was present in the vehicle group and 3 mice in OOP 2-treated group. Food and water ad libitum was provided as needed and according to the protocol. OOP 2 was administered by Intraperitoneal (IP) injection. OOP 2 was dissolved in sterile PBS at a concentration range between […]. Volume administered was about 100-150 μl every 48 hours. No toxicity was seen even at 100 mg/kg of OOP 2, at which point the experiment was terminated.

| Compound | HIF1α-inducible promoter activity (luciferase) [1] | EC50 at 48 h [2] [µM] | number of transcripts induced, of the hypoxia-induced set (MCF7 cells) | number of transcripts inhibited, of the hypoxia-induced set (MCF7 cells) | intracellular levels of c-Met (Western blot) (c-Met) | expression levels of LOX gene (mRNA) (LOX gene) | intracellular levels of HIF-1α (Western blot) (HIF-1α) | expression levels of VEGFA gene (mRNA) (VEGFA gene) | expression levels of c-Met gene (mRNA) (c-Met gene) | toxicity in MTD study [3] |
| --- | --- | --- | --- | --- | --- | --- | --- | --- | --- | --- |
| CC(C)C[C@@H]1NCCN([C@@H](CC(C)C)C(=O)N2CCN([C@@H](C)C(N)=O)C(=O)[C@@H]2C)C1=O [OOP 1] | reduces HIF1α-inducible promoter activity in vitro in a dose-dependent manner | 30 | 148 | 449 | – | – | – | – | – | – |
| CC(C)C[C@@H]1NCCN([C@@H](CC(C)C)C(=O)N2CCN([C@@H](CCC(N)=O)C(N)=O)C(=O)[C@@H]2C)C1=O [OOP 2] | reduces HIF1α-inducible promoter activity in vitro in a dose-dependent manner | 30 | 217 | 371 | decreases intracellular levels of c-Met | reduced expression levels of LOX gene | does not decrease the intracellular levels of HIF-1α | reduced expression levels of VEGFA gene | reduced expression levels of c-Met gene | No toxicity |
| CC(C)C[C@H](N)C(=O)N1CCN([C@@H](C)C(=O)N2CCN([C@@H](C)C(N)=O)C(=O)[C@@H]2CC(C)C)C(=O)[C@@H]1CCCNC(=N)N [OOP 3] | reduces HIF1α-inducible promoter activity in vitro in a dose-dependent manner | – | – | – | – | – | – | – | – | – |
| C[C@@H]1NCCN([C@@H](C)C(=O)N2CCN([C@@H](C)C(N)=O)C(=O)[C@@H]2C)C1=O [OOP 4] | does not affect HIF1α-inducible promoter activity | – | 91 | 82 | – | no inhibitory activity | – | no inhibitory activity | no inhibitory activity | – |
